One experiment concerns the target T1, Aurora kinase A (AURKA) (Homo sapiens, UniProt O14965).
T1 construct: endogenous in cells; host or cells: HeLa LgBit (AURKA-HiBit KI), CRISPR/Cas9 knock-in at the endogenous AURKA locus
T1 sequence (O14965 1-403): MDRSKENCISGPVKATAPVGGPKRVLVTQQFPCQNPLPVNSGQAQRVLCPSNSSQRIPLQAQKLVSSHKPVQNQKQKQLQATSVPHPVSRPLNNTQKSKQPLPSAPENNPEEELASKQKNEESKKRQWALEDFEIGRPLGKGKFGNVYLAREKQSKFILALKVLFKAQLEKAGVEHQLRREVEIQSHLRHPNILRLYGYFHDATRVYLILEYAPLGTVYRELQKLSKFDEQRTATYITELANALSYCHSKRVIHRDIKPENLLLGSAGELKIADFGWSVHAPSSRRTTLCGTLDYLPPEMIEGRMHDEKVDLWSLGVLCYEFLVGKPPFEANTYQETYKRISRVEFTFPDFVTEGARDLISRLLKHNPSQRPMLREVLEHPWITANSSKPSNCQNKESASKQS
The experiment is described as follows: Luciferase assay for AURKA in HeLa LgBit (AURKA-HiBit KI) cell line. It counts as cell-based. The following applies: HeLa LgBit (AURKA-HiBit KI) cells, measured after 12 hours. In a few lines: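 HeLa cells stably expressing LgBit, with HiBit knocked in at the C-terminus of endogenous AURKA; 3×10^4 cells seeded, 18 h, then Endurazine substrate 2 h. Compounds tested at 10 nM or 100 nM; luminescence read at 470-480 nm after 12 h as real-time read-out.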
(With HiBiT, luminescence reflects the tagged protein that the partner subunit can reach.)

The test system of another experiment is NCI-H446 cell line. The experiment is described as follows: Cell viability assay for NCI-H446 cell line. In kind it is cell-based. The following applies: Homo sapiens, NCI-H446, 120 h; H446 cells, 5 days culture, EZ-Cytox; read-out: IC50 value (Level). A digest of the protocol:
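H446 cells seeded 24 h before treatment with compound in 3-fold dilutions, 1000 to 0.15 nM, then cultured 5 days at 37 °C, 5% CO2 in RPMI 1640/10% FBS. Viability read with EZ-Cytox (4 h) as absorbance at 450 nm.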

The IC50 is the concentration that inhibits the measured activity by half.

As to `O=C1CCC(c2ccc(N3CCN(CCCC4CCN(NC(=O)c5ccc(Nc6ncc(F)c(Nc7ccc(C(=O)Nc8ccccc8Cl)cc7)n6)cc5)CC4)CC3)cc2)C(=O)N1` (stereo not drawn) [Compound 52, N-(2-chlorophenyl)-4-((2-((4-((4-(3-(4-(4-(2,6-dioxopiperidin-3-yl)phenyl)piperazin-1-yl)propyl)piperidin-1-yl)carbamoyl)phenyl)amino)-5-fluoropyrimidin-4-yl)amino)benzamide], the “luminescence value (Level)” value on Aurora kinase A (AURKA) (10 nM compound) is given as “A (A is <0.3)”; on Aurora kinase A (AURKA) (100 nM compound), “A (A is <0.2)”. For the same molecule, the half-inhibitory concentration (IC50) in the experiment with NCI-H446 cell line was less than 50 nM.

With `CC(CN1CCN(c2ccc(C3CCC(=O)NC3=O)cc2)CC1)N1CCC(NC(=O)c2ccc(Nc3ncc(F)c(Nc4ccc(C(=O)Nc5ccccc5Cl)cc4)n3)cc2)CC1` (stereo not drawn) [Compound 67, N-(2-chlorophenyl)-4-((2-((4-((1-(1-(4-(4-(2,6-dioxopiperidin-3-yl)phenyl)piperazin-1-yl)propan-2-yl)piperidin-4-yl)carbamoyl)phenyl)amino)-5-fluoropyrimidin-4-yl)amino)benzamide], the “luminescence value (Level)” value on Aurora kinase A (AURKA) (10 nM compound) was “B (B is 0.3 to 0.5)”; at Aurora kinase A (AURKA) (100 nM compound), “A (A is <0.2)”. Moreover, the half-inhibitory concentration (IC50) in the experiment with NCI-H446 cell line fell in the range of 100 to 150 nM.

For the molecule `O=C1CCC(c2ccc(N3CC(CN4CCC(NC(=O)c5ccc(Nc6ncc(F)c(Nc7ccc(C(=O)Nc8ccccc8Cl)cc7)n6)cc5)CC4)C3)cc2)C(=O)N1` (stereo not drawn) [Compound 8, N-(2-chlorophenyl)-4-((2-((4-((1-((1-(4-(2,6-dioxopiperidin-3-yl)phenyl)azetidin-3-yl)methyl)piperidin-4-yl)carbamoyl)phenyl)amino)-5-fluoropyrimidin-4-yl)amino)benzamide], the “luminescence value (Level)” value at Aurora kinase A (AURKA) (10 nM compound) was “B (B is 0.3 to 0.5)”; on Aurora kinase A (AURKA) (100 nM compound), “A (A is <0.2)”. The half-inhibitory concentration (IC50) in the experiment on NCI-H446 cell line was less than 50 nM.

With `O=C1CCC(Nc2ccc(N3CCN(CCN4CCC(NC(=O)c5ccc(Nc6ncc(F)c(Nc7ccc(C(=O)Nc8ccccc8Cl)cc7)n6)cc5)CC4)CC3)cc2)C(=O)N1` (stereo not drawn) [Compound 73, N-(2-chlorophenyl)-4-((2-((4-((1-(2-(4-(4-((2,6-dioxopiperidin-3-yl)amino)phenyl)piperazin-1-yl)ethyl)piperidin-4-yl)carbamoyl)phenyl)amino)-5-fluoropyrimidin-4-yl)amino)benzamide], the “luminescence value (Level)” value at Aurora kinase A (AURKA) (10 nM compound) is listed as “A (A is <0.3)”; at Aurora kinase A (AURKA) (100 nM compound), “A (A is <0.2)”. Further, the IC50 with NCI-H446 cell line was in the range of 100 to 150 nM.

For `O=C1CCC(Nc2ccc(N3CCN(CC4CC45CCN(C(=O)c4ccc(Nc6ncc(F)c(Nc7ccc(C(=O)Nc8ccccc8Cl)cc7)n6)cc4)CC5)CC3)cc2)C(=O)N1` (stereo not drawn) [Compound 30, N-(2-chlorophenyl)-4-((2-((4-(1-((4-(4-((2,6-dioxopiperidin-3-yl)amino)phenyl)piperazin-1-yl)methyl)-6-azaspiro[2.5]octane-6-carbonyl)phenyl)amino)-5-fluoropyrimidin-4-yl)amino)benzamide], the entries for the “luminescence value (Level)” value at Aurora kinase A (AURKA) (10 nM compound) and on Aurora kinase A (AURKA) (100 nM compound) were “B (B is 0.3 to 0.5)” and “A (A is <0.2)”, respectively. In addition, the IC50 with NCI-H446 cell line was less than 50 nM.

For `O=C1CCC(c2ccc(N3CCC(O)(CCC4CCN(NC(=O)c5ccc(Nc6ncc(F)c(Nc7ccc(C(=O)Nc8ccccc8Cl)cc7)n6)cc5)CC4)CC3)c(F)c2)C(=O)N1` (stereo not drawn) [Compound 96, N-(2-chlorophenyl)-4-((2-((4-((4-(2-(1-(4-(2,6-dioxopiperidin-3-yl)-2-fluorophenyl)-4-hydroxypiperidin-4-yl)ethyl)piperidin-1-yl)carbamoyl)phenyl)amino)-5-fluoropyrimidin-4-yl)amino)benzamide], the “luminescence value (Level)” value at Aurora kinase A (AURKA) (10 nM compound) was “A (A is <0.3)”; on Aurora kinase A (AURKA) (100 nM compound), “A (A is <0.2)”. For the same molecule, the half-inhibitory concentration (IC50) with NCI-H446 cell line was less than 50 nM.

`CN(c1ccc(N2CCC(CN3CCN(C(=O)Cc4ccc(Nc5ncc(F)c(Nc6ccc(C(=O)Nc7ccccc7Cl)cc6)n5)cc4)CC3)CC2)cc1)C1CCC(=O)NC1=O` (stereo not drawn) [Compound 44, N-(2-chlorophenyl)-4-((2-((4-(2-(4-((1-(4-((2,6-dioxopiperidin-3-yl)(methyl)amino)phenyl)piperidin-4-yl)methyl)piperazin-1-yl)-2-oxoethyl)phenyl)amino)-5-fluoropyrimidin-4-yl)amino)benzamide]: the “luminescence value (Level)” value on Aurora kinase A (AURKA) (10 nM compound) is reported as “B (B is 0.3 to 0.5)”; at Aurora kinase A (AURKA) (100 nM compound), “A (A is <0.2)”. The IC50 in the experiment with NCI-H446 cell line was 100 to 150 nM.

As for `O=C1CCC(c2ccc(N3CCN(CCC4CCN(NC(=O)c5ccc(Nc6ncc(F)c(Nc7ccc(C(=O)Nc8ccccc8Cl)cc7)n6)cc5)CC4)CC3)c(F)c2)C(=O)N1` (stereo not drawn) [Compound 48, N-(2-chlorophenyl)-4-((2-((4-((4-(2-(4-(4-(2,6-dioxopiperidin-3-yl)-2-fluorophenyl)piperazin-1-yl)ethyl)piperidin-1-yl)carbamoyl)phenyl)amino)-5-fluoropyrimidin-4-yl)amino)benzamide], the “luminescence value (Level)” value was “A (A is <0.3)” on Aurora kinase A (AURKA) (10 nM compound) and “A (A is <0.2)” on Aurora kinase A (AURKA) (100 nM compound). Also, the IC50 in the experiment with NCI-H446 cell line is less than 50 nM.

Take `O=C1CCC(c2ccc(N3CCC(CN4CCC5(CC4)CC(NC(=O)c4ccc(Nc6ncc(F)c(Nc7ccc(C(=O)Nc8ccccc8Cl)cc7)n6)cc4)C5)CC3)c(F)c2)C(=O)N1` (stereo not drawn) [Compound 23, N-(2-chlorophenyl)-4-((2-((4-((7-((1-(4-(2,6-dioxopiperidin-3-yl)-2-fluorophenyl)piperidin-4-yl)methyl)-7-azaspiro[3.5]nonan-2-yl)carbamoyl)phenyl)amino)-5-fluoropyrimidin-4-yl)amino)benzamide]: the “luminescence value (Level)” value at Aurora kinase A (AURKA) (10 nM compound) was “B (B is 0.3 to 0.5)”; on Aurora kinase A (AURKA) (100 nM compound) it was “A (A is <0.2)”. Besides, the IC50 with NCI-H446 cell line is less than 50 nM.

For `O=C1CC[C@@H](Nc2ccc(N3CCN(CCC4CCN(NC(=O)c5ccc(Nc6ncc(F)c(Nc7ccc(C(=O)Nc8ccccc8Cl)cc7)n6)cc5)CC4)CC3)c(F)c2)C(=O)N1` [Compound 108, (R)—N-(2-chlorophenyl)-4-((2-((4-((4-(2-(4-(4-((2,6-dioxopiperidin-3-yl)amino)-2-fluorophenyl)piperazin-1-yl)ethyl)piperidin-1-yl)carbamoyl)phenyl)amino)-5-fluoropyrimidin-4-yl)amino)benzamide], the entries for the “luminescence value (Level)” value at Aurora kinase A (AURKA) (10 nM compound) and on Aurora kinase A (AURKA) (100 nM compound) were “A (A is <0.3)” and “A (A is <0.2)”, respectively. Also, the IC50 in the experiment on NCI-H446 cell line is less than 50 nM.

As for `O=C1CCC(c2ccc(N3CCN(CC[C@H]4CC[C@H](NC(=O)c5ccc(Nc6ncc(F)c(Nc7ccc(C(=O)Nc8ccccc8Cl)cc7)n6)cc5)CC4)CC3)cc2)C(=O)N1` (stereo partly drawn) [Compound 17, N-(2-chlorophenyl)-4-((2-((4-(((1r,4r)-4-(2-(4-(4-(2,6-dioxopiperidin-3-yl)phenyl)piperazin-1-yl)ethyl)cyclohexyl)carbamoyl)phenyl)amino)-5-fluoropyrimidin-4-yl)amino)benzamide], the “luminescence value (Level)” value on Aurora kinase A (AURKA) (10 nM compound) was “A (A is <0.3)”; on Aurora kinase A (AURKA) (100 nM compound), “A (A is <0.2)”. The IC50 with NCI-H446 cell line was 50 to 100 nM.

Regarding `O=C1CCC(c2ccc(N3CCC(CN4CCC(NC(=O)c5ccc(Nc6ncc(F)c(Nc7ccc(C(=O)Nc8ccccc8Cl)cc7)n6)cc5)CC4)C3)cc2)C(=O)N1` (stereo not drawn) [Compound 9, N-(2-chlorophenyl)-4-((2-((4-((1-((1-(4-(2,6-dioxopiperidin-3-yl)phenyl)pyrrolidin-3-yl)methyl)piperidin-4-yl)carbamoyl)phenyl)amino)-5-fluoropyrimidin-4-yl)amino)benzamide], the “luminescence value (Level)” value at Aurora kinase A (AURKA) (10 nM compound) was “B (B is 0.3 to 0.5)”; at Aurora kinase A (AURKA) (100 nM compound), “A (A is <0.2)”. Besides, the IC50 in the experiment with NCI-H446 cell line was less than 50 nM.

The record behind these values is patent publication US20260226071A1, “2, 4-DIANILINOPYRIMIDINE-BASED AURORA-A KINASE SELECTIVE DEGRADATION INDUCING COMPOUNDS” (UPPTHERA, INC., priority 2023, published 2026).
